Read-outs that look alike come from different tables or passages of the source.
System: cancer cell lines
Assay: Cancer cell proliferation activity (CellTiterGlo, 72 h)
Type: cell-based
Settings: 72 h, 72 h, read-out: IC50
How it was run: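 Cells seeded overnight at 37 °C, then dosed with compound at 0.1% final DMSO and incubated 72 h at 37 °C (5% or 10% CO2 by medium).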

IC50 (5637 cell line (bladder)): 5.02 µM
IC50 (CLS439 cell line (bladder)): > 50 µM
IC50 (HS729 cell line (muscle)): 4.91 µM
IC50 (JAR cell line (placenta)): > 50 µM
IC50 (U20S cell line, bone): > 50 µM
IC50 (Homo sapiens, 22Rv1, 72 h, 22RV1 cell line (prostate)): > 50 µM
IC50 (Homo sapiens, 786-0, 72 h, 786O cell line (kidney)): > 50 µM
IC50 (Homo sapiens, A204, 72 h, A204 cell line (muscle)): 1.1 µM
IC50 (Homo sapiens, A549, 72 h, A549 cell line, lung): 3.33 µM
IC50 (Homo sapiens, A673, 72 h, A673 cell line (bone)): > 50 µM
IC50 (Homo sapiens, A2780, 72 h, A2780 cell line (ovary)): > 50 µM
IC50 (Homo sapiens, A-375, 72 h, A375 cell line (skin)): 4.58 µM
IC50 (Homo sapiens, A-431, 72 h, A431 cell line (skin)): > 50 µM
IC50 (Homo sapiens, ACHN, ACHN cell line (kidney)): > 50 µM
IC50 (Homo sapiens, ASPC1, 72 h, ASPC1 cell line (pancreas)): > 50 µM
IC50 (Homo sapiens, BT-20, 72 h, BT20 cell line (breast)): > 50 µM
IC50 (Homo sapiens, BXPC-3, 72 h, BXPC3 cell line (pancreas)): > 50 µM
IC50 (Homo sapiens, C-33-A, C33A cell line, endometrial): 2.67 µM
IC50 (Homo sapiens, CAKI-1, 72 h, CAKI1 cell line (kidney)): 3.25 µM
IC50 (Homo sapiens, COLO 205, 72 h, COLO205 cell line (colon)): 2.31 µM
IC50 (Homo sapiens, COLO-678, 72 h, COLO678 cell line (colon)): > 50 µM
IC50 (Homo sapiens, Ca-Ski, CASKI cell line, endometrial): > 50 µM
IC50 (Homo sapiens, Caco-2, 72 h, CACO2 cell line (colon)): > 50 µM
IC50 (Homo sapiens, Calu-6, 72 h, CALU6 cell line (lung)): 6.06 µM
IC50 (Homo sapiens, DLD-1, 72 h, DLD1 cell line (colon)): > 50 µM
IC50 (Homo sapiens, DU-145, 72 h, DU145 cell line (prostate)): > 50 µM
IC50 (Homo sapiens, EFO-21, 72 h, EFO21 cell line (ovary)): > 50 µM
IC50 (Homo sapiens, EJ-28, 72 h, EJ28 cell line (bladder)): > 50 µM
IC50 (Homo sapiens, Granta-519, 72 h, GRANTA-519 cell line (hematological)): 1.06 µM
IC50 (Homo sapiens, HCT-15, 72 h, HCT15 cell line (colon)): > 50 µM
IC50 (Homo sapiens, HCT-116, 72 h, HCT116 cell line (colon)): 3.65 µM
IC50 (Homo sapiens, HEK293, 72 h, HEK293 cell line (kidney)): 3.46 µM
IC50 (Homo sapiens, HL-60, 72 h, HL-60 cell line (hematological)): 3.42 µM
IC50 (Homo sapiens, HT-29, 72 h, HT29 cell line (colon)): > 50 µM
IC50 (Homo sapiens, HT-1080, 72 h, HT1080 cell line (connective tissue)): 3.43 µM
IC50 (Homo sapiens, HeLa, HELA cell line, endometrial): 5.34 µM
IC50 (Homo sapiens, HepG2, 72 h, HEPG2 cell line (liver)): > 50 µM
IC50 (Homo sapiens, Hs-578T, HS578T cell line, breast): > 50 µM
IC50 (Homo sapiens, IGROV-1, 72 h, IGROV1 cell line (ovary)): > 50 µM
IC50 (Homo sapiens, IMR-90, 72 h, IMR90 cell line, lung): 5.39 µM
IC50 (Homo sapiens, J82, 72 h, J82 cell line (bladder)): > 50 µM
IC50 (Homo sapiens, JEG-3, 72 h, JEG3 cell line (placenta)): > 50 µM
IC50 (Homo sapiens, JIMT-1, 72 h, JIMT1 cell line (breast)): 11.8 µM
IC50 (Homo sapiens, K562, 72 h, K-562 cell line (hematological)): 5.04 µM
IC50 (Homo sapiens, Kasumi 1, 72 h, KASUMI-1 cell line (hematological)): 0.5 µM
IC50 (Homo sapiens, L-363, 72 h, L-363 cell line (hematological)): > 50 µM
IC50 (Homo sapiens, LoVo, LOVO cell line (colon)): > 50 µM
IC50 (Homo sapiens, MCF7, 72 h, MCF7 cell line (breast)): 2.6 µM
IC50 (Homo sapiens, MDA-MB-231, 72 h, MDAMB231 cell line (breast)): 2.96 µM
IC50 (Homo sapiens, MDA-MB-435, 72 h, MDAMB435 cell line (skin)): > 50 µM
IC50 (Homo sapiens, MDA-MB-436, 72 h, MDAMB436 cell line (breast)): 3.65 µM
IC50 (Homo sapiens, MDA-MB-468, 72 h, MDAMB468 cell line (breast)): > 50 µM
IC50 (Homo sapiens, MG-63, 72 h, MG63 cell line (bone)): 3.93 µM
IC50 (Homo sapiens, MHH-ES-1, 72 h, MHHES1 cell line (bone)): 4.87 µM
IC50 (Homo sapiens, MIA PaCa-2, 72 h, MIAPACA2 cell line (pancreas)): > 50 µM
IC50 (Homo sapiens, MINO, MINO cell line (hematological)): 1.51 µM
IC50 (Homo sapiens, MV4-11, 72 h, MV4-11 cell line (hematological)): 2.14 µM
IC50 (Homo sapiens, NCI-H23, 72 h, NCI-H23 cell line (lung)): 1.81 µM
IC50 (Homo sapiens, NCI-H82, 72 h, NCIH82 cell line (lung)): > 50 µM
IC50 (Homo sapiens, NCI-H292, 72 h, NCIH292 cell line (lung)): 5.41 µM
IC50 (Homo sapiens, NCI-H460, 72 h, NCIH460 cell line (lung)): > 50 µM
IC50 (Homo sapiens, OVCAR-3, 72 h, OVCAR3 cell line (ovary)): 3.08 µM
IC50 (Homo sapiens, OVCAR-4, 72 h, OVCAR4 cell line (ovary)): 3.18 µM
IC50 (Homo sapiens, PANC-1, 72 h, PANC1 cell line (pancreas)): > 50 µM
IC50 (Homo sapiens, PC-3, 72 h, PC3 cell line (prostate)): 4.81 µM
IC50 (Homo sapiens, PLC-PRF-5, 72 h, PLCPRF5 cell line (liver)): > 50 µM
IC50 (Homo sapiens, Panc1005, 72 h, PANC1005 cell line (pancreas)): > 50 µM
IC50 (Homo sapiens, RD, RD cell line (muscle)): 2.67 µM
IC50 (Homo sapiens, Ramos, RAMOS cell line (hematological)): 1.41 µM
IC50 (Homo sapiens, SAOS-2, 72 h, SAOS2 cell line (bone)): 1.7 µM
IC50 (Homo sapiens, SF-268, 72 h, SF268 cell line (brain)): > 50 µM
IC50 (Homo sapiens, SF-295, 72 h, SF295 cell line (brain)): > 50 µM
IC50 (Homo sapiens, SK-BR-3, 72 h, SKBR3 cell line (breast)): 3.45 µM
IC50 (Homo sapiens, SK-HEP1, 72 h, SKHEP1 cell line (liver)): 3.02 µM
IC50 (Homo sapiens, SK-LMS-1, 72 h, SKLMS1 cell line (uterus)): > 50 µM
IC50 (Homo sapiens, SK-MEL-5, 72 h, SKMEL5 cell line, skin): > 50 µM
IC50 (Homo sapiens, SK-MEL-28, 72 h, SKMEL28 cell line (skin)): 4.19 µM
IC50 (Homo sapiens, SK-N-AS, SKNAS cell line (brain)): 0.96 µM
IC50 (Homo sapiens, SK-N-SH, SKNSH cell line (brain)): 0.91 µM
IC50 (Homo sapiens, SK-OV-3, 72 h, SKOV3 cell line (ovary)): 2.45 µM
IC50 (Homo sapiens, SNB-75, 72 h, SNB75 cell line (brain)): > 50 µM
IC50 (Homo sapiens, SU-DHL10, 72 h, SU-DHL-10 cell line (hematological)): 5.56 µM
IC50 (Homo sapiens, SU-DHL-6, 72 h, SU-DHL-6 cell line (hematological)): > 50 µM
IC50 (Homo sapiens, SW-620, 72 h, SW620 cell line (colon)): > 50 µM
IC50 (Homo sapiens, T-24, 72 h, T24 cell line (bladder)): > 50 µM
IC50 (Homo sapiens, TE-671, 72 h, TE671 cell line (muscle)): 3.08 µM
IC50 (Homo sapiens, THP-1, 72 h, THP-1 cell line (hematological)): 3.01 µM
IC50 (Homo sapiens, U-87 MG, U87MG cell line (brain)): > 50 µM
IC50 (Homo sapiens, UMUC3, 72 h, UMUC3 cell line (bladder)): > 50 µM
IC50 (Homo sapiens, UO-31, 72 h, UO31 cell line (kidney)): > 50 µM
IC50 (Homo sapiens, WSU-NHL, WSU-NHL cell line (hematological)): 2.34 µM
IC50 (MT-3, 72 h, MT3 cell line (breast)): 3.68 µM
IC50 (NCI-H358M, NCIH358M cell line (lung)): 2.69 µM
IC50 (PBMC, PBMC (hematological)): > 50 µM
IC50 (RD-ES, RDES cell line (bone)): > 50 µM
SMILES: C=C[C@]1(CO)O[C@@H](Nc2[nH]c(=O)ncc2Br)C[C@@H]1O [Cpd. No. 3, 5-bromo-6-(((2R,4S,5R)-4-hydroxy-5-(hydroxymethyl)-5-vinyltetrahydrofuran-2-yl)amino)pyrimidin-2(1H)-one]

Reference: patent US20250215039A1, “NUCLEOSIDES FOR TREATING CANCER” (PRIMEFOUR THERAPEUTICS, INC., priority 2022, published 2025)
